This is an account of results in paper PMC9824296, “Functional Characterization of Three Diterpene Synthases Responsible for Tetracyclic Diterpene Biosynthesis in Scoparia dulcis” (Plants, 2022).

One test concerns the target T1, SdCPS2 (Scoparia dulcis, UniProt A0A1U8XUA9).
T1 construct: gene CPS2; full ORF 2412 bp, 804 residues
T1 sequence (A0A1U8XUA9 81-804): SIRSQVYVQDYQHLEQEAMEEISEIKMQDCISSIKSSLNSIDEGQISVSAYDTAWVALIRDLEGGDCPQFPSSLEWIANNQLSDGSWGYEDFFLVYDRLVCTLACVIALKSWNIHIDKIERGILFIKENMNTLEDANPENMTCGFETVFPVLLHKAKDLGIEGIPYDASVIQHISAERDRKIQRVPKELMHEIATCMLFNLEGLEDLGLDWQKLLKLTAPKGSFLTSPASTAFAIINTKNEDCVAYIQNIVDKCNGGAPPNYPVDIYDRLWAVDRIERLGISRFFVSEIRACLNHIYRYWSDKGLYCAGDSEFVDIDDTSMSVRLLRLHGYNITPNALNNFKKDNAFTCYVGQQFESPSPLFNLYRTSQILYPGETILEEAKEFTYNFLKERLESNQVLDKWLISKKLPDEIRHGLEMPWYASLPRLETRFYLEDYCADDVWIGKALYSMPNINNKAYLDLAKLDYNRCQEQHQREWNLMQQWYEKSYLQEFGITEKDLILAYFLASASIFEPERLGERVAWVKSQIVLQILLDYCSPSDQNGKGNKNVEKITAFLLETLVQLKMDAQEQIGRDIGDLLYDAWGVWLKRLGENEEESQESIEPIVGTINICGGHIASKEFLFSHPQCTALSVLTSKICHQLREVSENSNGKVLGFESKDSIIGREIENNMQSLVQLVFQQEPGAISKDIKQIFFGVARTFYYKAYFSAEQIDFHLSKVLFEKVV
The test is described as follows: GC-MS of n-hexane extract of recombinant E. coli cultures. The format is cell-based. As to conditions: GGPP supplied by co-expressed SdGGPPS; 16 °C; product seen as dephosphorylated alcohol.

The next test concerns the target T2, OsKSL4 (Oryza sativa, UniProt Q0JEZ8).
T2 construct: gene KSL4; in pET28b (NcoI/NotI), expressed in E. coli C41
T2 sequence (Q0JEZ8 57-842): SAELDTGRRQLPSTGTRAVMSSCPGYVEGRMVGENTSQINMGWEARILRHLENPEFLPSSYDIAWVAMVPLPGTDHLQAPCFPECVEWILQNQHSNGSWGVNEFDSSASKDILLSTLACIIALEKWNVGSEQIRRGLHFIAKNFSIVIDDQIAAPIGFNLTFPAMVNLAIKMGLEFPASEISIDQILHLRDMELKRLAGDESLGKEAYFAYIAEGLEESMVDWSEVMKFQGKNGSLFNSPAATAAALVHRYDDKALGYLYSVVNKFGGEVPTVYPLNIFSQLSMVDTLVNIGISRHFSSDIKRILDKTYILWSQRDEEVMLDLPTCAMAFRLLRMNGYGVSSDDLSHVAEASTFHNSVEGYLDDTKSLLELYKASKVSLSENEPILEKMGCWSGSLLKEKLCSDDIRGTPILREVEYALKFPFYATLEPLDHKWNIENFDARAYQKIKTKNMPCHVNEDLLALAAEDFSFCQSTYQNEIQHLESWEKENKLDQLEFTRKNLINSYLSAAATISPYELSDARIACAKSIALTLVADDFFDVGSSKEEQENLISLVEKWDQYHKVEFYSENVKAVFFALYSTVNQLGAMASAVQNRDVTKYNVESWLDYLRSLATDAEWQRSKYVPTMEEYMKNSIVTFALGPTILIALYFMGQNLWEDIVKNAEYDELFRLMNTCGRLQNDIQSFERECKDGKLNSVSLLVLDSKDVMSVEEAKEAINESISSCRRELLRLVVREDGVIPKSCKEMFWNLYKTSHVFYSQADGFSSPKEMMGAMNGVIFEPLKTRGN
The description is as above. Type of test: cell-based. As to conditions: reference enzyme; syn-CPP supplied by co-expressed SdCPS2 or OsCPS4 with SdGGPPS; 16 °C; product 7.

Turning to `CC(C)=CCC/C(C)=C/CC/C(C)=C/CC/C(C)=C/COP(=O)(O)OP(=O)(O)O` [compound 2, geranylgeranyl diphosphate], the “GC-MS of n-hexane extract of recombinant E. coli cultures” value at SdCPS2 was “The SdCPS2 catalyzed a cyclization reaction from GGPP to syn-CPP”. For `C=C1CC[C@H]2C(C)(C)CCC[C@]2(C)[C@@H]1CC/C(C)=C/COP(=O)(O)OP(=O)(O)O` [compound 3, syn-copalyl diphosphate], at OsKSL4, the “GC-MS of n-hexane extract of recombinant E. coli cultures” value is reported as “SdCPS2 could be cyclized by OsKSL4, whose substrate is a syn-copalyl diphosphate”.
